{"source": "PubChem BioAssay (NCI)", "assay_in_all_cases": "NCI anticancer screen, dose series, 384-well format", "key": {"KM12 colon": {"system": "KM12 colon"}, "PC-3 prostate": {"system": "PC-3 prostate"}, "SW-620 colon": {"system": "SW-620 colon"}, "UACC-257 melanoma": {"system": "UACC-257 melanoma"}, "HOP-62 NSCLC": {"system": "HOP-62 NSCLC"}, "NCI-H226 lung": {"system": "NCI-H226 lung"}, "DU-145 prostate": {"system": "DU-145 prostate"}, "HS 578T breast": {"system": "HS 578T breast"}, "SNB-75 CNS": {"system": "SNB-75 CNS"}, "RXF 393 renal": {"system": "RXF 393 renal"}, "A498 renal": {"system": "A498 renal"}, "NCI-H23 lung": {"system": "NCI-H23 lung"}, "SF-539 CNS": {"system": "SF-539 CNS"}, "HCT-15 colon": {"system": "HCT-15 colon"}, "COLO 205 colon": {"system": "COLO 205 colon"}, "SNB-19 CNS": {"system": "SNB-19 CNS"}, "IGROV1 ovarian": {"system": "IGROV1 ovarian"}, "UO-31 renal": {"system": "UO-31 renal"}, "ACHN renal": {"system": "ACHN renal"}, "NCI/ADR-RES ovarian": {"system": "NCI/ADR-RES ovarian"}, "MCF7 breast": {"system": "MCF7 breast"}, "A549 NSCLC": {"system": "A549 NSCLC"}, "MALME-3M melanoma": {"system": "MALME-3M melanoma"}, "SK-MEL-28 melanoma": {"system": "SK-MEL-28 melanoma"}, "CAKI-1 renal": {"system": "CAKI-1 renal"}, "SK-OV-3 ovarian": {"system": "SK-OV-3 ovarian"}, "NCI-H322M lung": {"system": "NCI-H322M lung"}, "MDA-MB-435 melanoma": {"system": "MDA-MB-435 melanoma"}, "T-47D breast": {"system": "T-47D breast"}, "SF-268 CNS": {"system": "SF-268 CNS"}, "HL-60(TB) leukemia": {"system": "HL-60(TB) leukemia"}, "MOLT-4 leukemia": {"system": "MOLT-4 leukemia"}, "SF-295 CNS": {"system": "SF-295 CNS"}, "HCC-2998 colon": {"system": "HCC-2998 colon"}, "CCRF-CEM leukemia": {"system": "CCRF-CEM leukemia"}, "OVCAR-5 ovarian": {"system": "OVCAR-5 ovarian"}, "OVCAR-3 ovarian": {"system": "OVCAR-3 ovarian"}, "LOX IMVI melanoma": {"system": "LOX IMVI melanoma"}, "MDA-MB-468 breast": {"system": "MDA-MB-468 breast"}}, "note": "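Abbreviation: GI50, concentration required for 50% inhibition of growth. TGI denotes the concentration required for complete inhibition of growth.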", "data": [{"smiles": "CC(C)(C)c1cc(NC(=O)Nc2ccc(-c3cn4c(n3)sc3cc(OCCN5CCOCC5)ccc34)cc2)no1", "values": [{"measurement": "GI50", "setting": "KM12 colon", "result": 0.559, "unit": "µM"}, {"measurement": "TGI", "setting": "KM12 colon", "result": "> 100", "unit": "µM"}, {"measurement": "GI50", "setting": "PC-3 prostate", "result": 1.63, "unit": "µM"}, {"measurement": "TGI", "setting": "PC-3 prostate", "result": "> 100", "unit": "µM"}, {"measurement": "GI50", "setting": "SW-620 colon", "result": "> 100", "unit": "µM"}, {"measurement": "TGI", "setting": "SW-620 colon", "result": "> 100", "unit": "µM"}, {"measurement": "GI50", "setting": "UACC-257 melanoma", "result": 4.09, "unit": "µM"}, {"measurement": "TGI", "setting": "UACC-257 melanoma", "result": "> 100", "unit": "µM"}, {"measurement": "GI50", "setting": "HOP-62 NSCLC", "result": 1.27, "unit": "µM"}, {"measurement": "TGI", "setting": "HOP-62 NSCLC", "result": 3.54, "unit": "µM"}, {"measurement": "GI50", "setting": "NCI-H226 lung", "result": 3.82, "unit": "µM"}, {"measurement": "TGI", "setting": "NCI-H226 lung", "result": "> 100", "unit": "µM"}, {"measurement": "GI50", "setting": "DU-145 prostate", "result": "> 100", "unit": "µM"}, {"measurement": "TGI", "setting": "DU-145 prostate", "result": "> 100", "unit": "µM"}, {"measurement": "GI50", "setting": "HS 578T breast", "result": 0.461, "unit": "µM"}, {"measurement": "TGI", "setting": "HS 578T breast", "result": 3.74, "unit": "µM"}, {"measurement": "GI50", "setting": "SNB-75 CNS", "result": 1.41, "unit": "µM"}, {"measurement": "TGI", "setting": "SNB-75 CNS", "result": 4.7, "unit": "µM"}, {"measurement": "GI50", "setting": "RXF 393 renal", "result": 0.184, "unit": "µM"}, {"measurement": "TGI", "setting": "RXF 393 renal", "result": 0.571, "unit": "µM"}, {"measurement": "GI50", "setting": "A498 renal", "result": 2.11, "unit": "µM"}, {"measurement": "TGI", "setting": "A498 renal", "result": 6.48, "unit": "µM"}, {"measurement": "GI50", "setting": "NCI-H23 lung", "result": 0.684, "unit": "µM"}, {"measurement": "TGI", "setting": "NCI-H23 lung", "result": "> 100", "unit": "µM"}, {"measurement": "GI50", "setting": "SF-539 CNS", "result": 1.08, "unit": "µM"}, {"measurement": "TGI", "setting": "SF-539 CNS", "result": 3.17, "unit": "µM"}, {"measurement": "GI50", "setting": "HCT-15 colon", "result": 4.54, "unit": "µM"}, {"measurement": "TGI", "setting": "HCT-15 colon", "result": "> 100", "unit": "µM"}, {"measurement": "GI50", "setting": "COLO 205 colon", "result": "> 100", "unit": "µM"}, {"measurement": "TGI", "setting": "COLO 205 colon", "result": "> 100", "unit": "µM"}, {"measurement": "GI50", "setting": "SNB-19 CNS", "result": 3.37, "unit": "µM"}, {"measurement": "TGI", "setting": "SNB-19 CNS", "result": "> 100", "unit": "µM"}, {"measurement": "GI50", "setting": "IGROV1 ovarian", "result": 4.98, "unit": "µM"}, {"measurement": "TGI", "setting": "IGROV1 ovarian", "result": "> 100", "unit": "µM"}, {"measurement": "GI50", "setting": "UO-31 renal", "result": "> 100", "unit": "µM"}, {"measurement": "TGI", "setting": "UO-31 renal", "result": "> 100", "unit": "µM"}, {"measurement": "GI50", "setting": "ACHN renal", "result": 7.13, "unit": "µM"}, {"measurement": "TGI", "setting": "ACHN renal", "result": "> 100", "unit": "µM"}, {"measurement": "GI50", "setting": "NCI/ADR-RES ovarian", "result": "> 100", "unit": "µM"}, {"measurement": "TGI", "setting": "NCI/ADR-RES ovarian", "result": "> 100", "unit": "µM"}, {"measurement": "GI50", "setting": "MCF7 breast", "result": 1.04, "unit": "µM"}, {"measurement": "TGI", "setting": "MCF7 breast", "result": "> 100", "unit": "µM"}, {"measurement": "GI50", "setting": "A549 NSCLC", "result": 4.97, "unit": "µM"}, {"measurement": "TGI", "setting": "A549 NSCLC", "result": "> 100", "unit": "µM"}, {"measurement": "GI50", "setting": "MALME-3M melanoma", "result": 1.89, "unit": "µM"}, {"measurement": "TGI", "setting": "MALME-3M melanoma", "result": "> 100", "unit": "µM"}, {"measurement": "GI50", "setting": "SK-MEL-28 melanoma", "result": 12.4, "unit": "µM"}, {"measurement": "TGI", "setting": "SK-MEL-28 melanoma", "result": "> 100", "unit": "µM"}, {"measurement": "GI50", "setting": "CAKI-1 renal", "result": 3.68, "unit": "µM"}, {"measurement": "TGI", "setting": "CAKI-1 renal", "result": "> 100", "unit": "µM"}, {"measurement": "GI50", "setting": "SK-OV-3 ovarian", "result": 1.67, "unit": "µM"}, {"measurement": "TGI", "setting": "SK-OV-3 ovarian", "result": "> 100", "unit": "µM"}, {"measurement": "GI50", "setting": "NCI-H322M lung", "result": 2.99, "unit": "µM"}, {"measurement": "TGI", "setting": "NCI-H322M lung", "result": "> 100", "unit": "µM"}, {"measurement": "GI50", "setting": "MDA-MB-435 melanoma", "result": "> 100", "unit": "µM"}, {"measurement": "TGI", "setting": "MDA-MB-435 melanoma", "result": "> 100", "unit": "µM"}, {"measurement": "GI50", "setting": "T-47D breast", "result": 0.094, "unit": "µM"}, {"measurement": "TGI", "setting": "T-47D breast", "result": 0.45, "unit": "µM"}, {"measurement": "GI50", "setting": "SF-268 CNS", "result": 0.584, "unit": "µM"}, {"measurement": "TGI", "setting": "SF-268 CNS", "result": 2.55, "unit": "µM"}, {"measurement": "GI50", "setting": "HL-60(TB) leukemia", "result": "> 100", "unit": "µM"}, {"measurement": "TGI", "setting": "HL-60(TB) leukemia", "result": "> 100", "unit": "µM"}, {"measurement": "GI50", "setting": "MOLT-4 leukemia", "result": 0.412, "unit": "µM"}, {"measurement": "TGI", "setting": "MOLT-4 leukemia", "result": "> 100", "unit": "µM"}, {"measurement": "GI50", "setting": "SF-295 CNS", "result": 1.12, "unit": "µM"}, {"measurement": "TGI", "setting": "SF-295 CNS", "result": "> 100", "unit": "µM"}, {"measurement": "GI50", "setting": "HCC-2998 colon", "result": "> 100", "unit": "µM"}, {"measurement": "TGI", "setting": "HCC-2998 colon", "result": "> 100", "unit": "µM"}, {"measurement": "GI50", "setting": "CCRF-CEM leukemia", "result": 0.459, "unit": "µM"}, {"measurement": "TGI", "setting": "CCRF-CEM leukemia", "result": "> 100", "unit": "µM"}, {"measurement": "GI50", "setting": "OVCAR-5 ovarian", "result": "> 100", "unit": "µM"}, {"measurement": "TGI", "setting": "OVCAR-5 ovarian", "result": "> 100", "unit": "µM"}, {"measurement": "GI50", "setting": "OVCAR-3 ovarian", "result": 3.03, "unit": "µM"}, {"measurement": "TGI", "setting": "OVCAR-3 ovarian", "result": "> 100", "unit": "µM"}, {"measurement": "GI50", "setting": "LOX IMVI melanoma", "result": 2.38, "unit": "µM"}, {"measurement": "TGI", "setting": "LOX IMVI melanoma", "result": "> 100", "unit": "µM"}, {"measurement": "GI50", "setting": "MDA-MB-468 breast", "result": 3.17, "unit": "µM"}, {"measurement": "TGI", "setting": "MDA-MB-468 breast", "result": 8.59, "unit": "µM"}]}]}
